In patent publication US12201632B2, “Levoketoconazole for treatment of congenital adrenal hyperplasia and primary aldosteronism” (Strongbridge Dublin Limited, priority 2018, dated 2025):
Where two headings read alike, the source gives them in different places.

Tested on: AtT20 cells
Test: Cell number of corticotroph pituitary AtT20 cells
Assay type: cell-based, mouse
Settings: for IC50: AtT20, after 7 days, read-out: IC50 inhibition of cell number
Protocol: Human adrenocortical carcinoma HAC15 and mouse corticotroph AtT20 cells were used, purchased as a kind gift by Dr. W. Rainey, and obtained from Dr. J. Tooze (European Organization for Molecular Biology), respectively. Both cell lines were cultured in 75 cm^2 flasks at 37° C. in a humidified incubator (Greiner Bio-One, Alphen a/d Rijn, the Netherlands) at 5% CO2. Dulbecco's Modified Eagle Medium F12 containing 5% fetal calf serum was used for HAC15, whereas AtT20 cells were cultured in Dulbecco's minimal essential medium (DMEM) supplemented with 10% fetal calf serum. Both mediums were supplemented with L-glutamine (2 mmol/L) and penicillin (10^5 U/L). Short tandem repeat (str) profiling using a Powerplex Kit (Promega, Leiden, the Netherlands) of HAC15 and AtT20 gave results consistent with the ATCC database, confirming the identity of both cell lines. Medium and supplements were obtained from Invitrogen, Breda, the Netherlands. Once a week, cells were harvested with trypsin (0.05%)-EDTA (0.53 mM) and resuspended in culture medium. Levoketoconazole (COR-003) and racemic ketoconazole (both from Cortendo AB) were dissolved in absolute ethanol (EtOH), according to manufacturer's instructions, and stored at −20° C. at a stock concentration of 10^−2 μM. At the start of each experiment, both drugs were freshly prepared and diluted in EtOH in the correct concentrations. Synacten (synthetic ACTH, Novartis Pharma A.G.) stock concentration was stored at 4° C. and dissolved in culture medium at the day of use. The final concentrations of ACTH were chosen based on a dose-response curve in HAC15 cells and previously reported studies in the literature. For HAC15, 200,000 and 100,000 cells were plated in 0.5 ml medium in 24 well plates for experiments of 1 and 3 days, respectively. For AtT20, cell amounts were 100,000 and 30,000. One day after seeding the HAC15 cells, the medium was refreshed and cells were treated 1 or 3 days in quadruplicate with levoketoconazole or racemic ketoconazole (0.05-5 μM), with or without 10 nM ACTH. To study effects of both compounds on pituitary AtT20 cells, concentrations of 0.1 to 10 μM of both drugs were used. Controls were vehicle treated. […] All cell culture experiments were carried out at least twice.
As a measure of cell number, DNA concentrations were determined using the bisbenzimide fluorescent dye (Hoechst 33258, Sigma Aldrich), as previously described.
Statistical analysis was performed using Graphpad Prism 6.0 (Graphpad Software, San Diego, CA). Non-linear regression curve fitting program was used to calculate the half maximal inhibitory concentrations (IC50) on cortisol production. Effects of both compounds on the steroid profile were measured as absolute change compared to control and compared using the Student's t-test. When assessing differences between effects of both compounds, the percentage change was evaluated and compared in order to correct for differences in the vehicle treated control cells. Values of P<0.05 were considered statistically significant and data are presented as mean SEM.

[1] = AtT20, after 3 and 7 days of treatment

SMILES	effect on cell number [1]	effect on cell number (AtT20, after 24 h of treatment)	IC50 [µM]	IC50 (Mus musculus, 168 h) [µM]
CC(=O)N1CCN(c2ccc(OC[C@@H]3CO[C@@](Cn4ccnc4)(c4ccc(Cl)cc4Cl)O3)cc2)CC1 (relative stereo) [levoketoconazole, 2S,4R cis-1-acetyl-4-[4-[[2-(2,4-dichlorophenyl)-2-(1H-imidazol-1-ylmethyl)-1,3-dioxolan-4-yl]methoxyl]phenyl]piperazine]	inhibited cell number	no effect	1.05	–
CC(=O)N1CCN(c2ccc(OCC3COC(Cn4ccnc4)(c4ccc(Cl)cc4Cl)O3)cc2)CC1 (racemic) [racemic ketoconazole, Ketoconazole]	inhibited cell number	no effect	–	5.81
